The test system of assay [1] is spermine synthase. As to the kind of experiment: Western blot of spermine synthase in LNCaP. The assay is classed as cell-based, human. Conditions: treatment with MTDIA. As to the method:
(§1) FIG. 9. (A) Proliferation curves for LNCaP, DU145 and PC3 treated with MTDIA in the absence or presence of 10 or 20 uM MTA, for 4 and (B) 8 days. Results of biological triplicates are shown with absolute IC50s indicated for each condition. (C) Western blot analysis of FaDu, LNCaP, and DU145 cells after indicated treatments of MTA (0, 10, or 20 uM) or the respective 4 day IC25 and IC50 dose of MTDIA for each cell line plus or minus MTA immunoblotted with antibodies against MTAP, SMS, and SRM, with B-actin as a loading control. Western blot images are representative of biological triplicates. Band intensity values normalized to B-actin relative to control conditions are indicated below the respective band.
(§2) Western Blotting—Whole cell extracts were prepared in RIPA buffer (150 mM NaCl, 1.0% NP-40, 0.5% deoxycholate, 0.1% SDS, 50 mM Tris-HCl pH 8.0, 5 mM EDTA and 0.5 mM PMSF) supplemented with 1× proteinase inhibitor. Protein concentrations were determined by Bradford Assay (Thermo Scientific, Cat #1856209). Samples were resolved on polyacrylamide gels and transferred onto PVDF membranes (Biorad, Cat #162-0177). Blots were incubated with primary antibodies overnight at 4° and with secondaries for 1.5 hours at room temperature. Signals were visualized using Pierce ECL western blotting substrate (Thermo Scientific, Cat #32209) and exposed to film. […]

Assay [2] relates to lung adenocarcinoma cell lines. To be noted: 6 day treatment, 20 uM MTA added to the media; cited from earlier work.
Assay [3] has as its system MTAP. As to the kind of experiment: Western blot of MTAP protein expression in FaDu. The assay is classed as cell-based, human. Conditions: 4 day IC25 and IC50 of MTDIA, presence or absence of MTA. As to the method: (§3) FIG. 9. (A) Proliferation curves for LNCaP, DU145 and PC3 treated with MTDIA in the absence or presence of 10 or 20 uM MTA, for 4 and (B) 8 days. […] (C) Western blot analysis of FaDu, LNCaP, and DU145 cells after indicated treatments of MTA (0, 10, or 20 uM) or the respective 4 day IC25 and IC50 dose of MTDIA for each cell line plus or minus MTA immunoblotted with antibodies against MTAP, SMS, and SRM, with B-actin as a loading control. Western blot images are representative of biological triplicates.
(§4) Western Blotting—Whole cell extracts were prepared in RIPA buffer (150 mM NaCl, 1.0% NP-40, 0.5% deoxycholate, 0.1% SDS, 50 mM Tris-HCl pH 8.0, 5 mM EDTA and 0.5 mM PMSF) supplemented with 1× proteinase inhibitor. Protein concentrations were determined by Bradford Assay (Thermo Scientific, Cat #1856209). […] MTAP for Westerns was purchased from Proteintech™ (Cat #11475-1-AP. SRM and SMS were purchased from Abcam® (Cat #ab111884 and ab156879). B-actin antibody for Westerns was purchased from Sigma-Aldrich (Cat #A5441) and GAPDH was from Santa Cruz Biotecnology Inc. (Cat #sc-25778). Films were scanned using the Biorad ChemiDoc XRS, and band intensities were calculated using Image Lab™. Intensity values were normalized to B-actin loading control band intensities and made relative to control treatment conditions.

Assay [4] concerns spermine synthase. Briefly: Western blot of spermine synthase in FaDu. To be noted: treatment with MTDIA. The class given is cell-based, human. As to the method: as §1, §2
(In general: In western blotting, separated proteins are transferred to a membrane and probed.)

Assay [5] has as its system MTAP. Briefly: Western blot of MTAP protein expression in LNCaP. The class given is cell-based, human. Conditions: 4 day IC25 and IC50 of MTDIA, presence or absence of MTA. How it is done:
as §3, §4

In assay [6] the test system is LNG53 cells. Briefly: Antiproliferative activity of MTDIA in LNCaP cells overexpressing SAT1 in Tet-off system. The class given is cell-based, human. Conditions: (-) Tet conditions, Tet removed 24 hours prior to 96 hr MTDIA. As to the method:
Tet was removed 24 hours prior to 96 hr treatment with MTDIA. […] Cells were pre-treated with BENSpm for 24 hours followed by 96 hr treatment with MTDIA.
We next analyzed whether the metabolic stress in CaP cells caused by high biosynthetic flux to maintain polyamine pools can be enhanced by increasing the activity of SAT1. We tested whether this could cause increased secretion of acetylated polyamines, putting intracellular pools in deficit, which should necessitate more biosynthesis, and should therefore potentiate any benefit of inhibiting the MSP. To conduct this analysis we used LNCaP cells that stably overexpress SAT1 in a Tet-off system (LNG53 cells, described in Kee, K., et al. J Biol Chem 279, 27050-27058 (2004)).

Results on 1 compound are retold here after patent publication US11045473B2, “Compositions and methods for therapy of prostate cancer using drug combinations to target polyamine biosynthesis and related pathways” (Health Research, Inc., priority 2015, dated 2021).

For the compound `CSC[C@H]1CN(Cc2c[nH]c3c(N)ncnc23)C[C@@H]1O` [MTDIA, (3R,4S)-1-[(9-Deaza-adenin-9-yl)methyl]-3-hydroxy-4-(methylthiomethyl)-pyrrolidine], the spermine synthase expression entry in assay [1] was “upregulated”; in assay [4] it was “downregulated”. For the same compound, in assay [2], the effective concentration is given as around 10 nM. For the same compound, the MTAP expression result in assay [3] was “downregulates MTAP”; in assay [5], “upregulate expression of MTAP”. Further, the “sensitivity to MTDIA when SAT1 is overexpressed” value in assay [6] is “much more sensitive”.
